According to patent publication US20160010142A1, “Compositions and Methods For Analysis of C02 Absorption” (NOVOZYMES NORTH AMERICA, INC., priority 2013, published 2016):

Legend:
[1] = tested on: carbonic anhydrase; assay: Effect of salt on carbonic anhydrase activity, 50 mM bicine/cresol red assay; assay type: biochemical; conditions: form of the enzyme that precipitates in the absence of salt
Procedure: The measurement of CO2 absorption enhancement by carbonic anhydrase was performed as described in Example 1 except the assay reagent contains 50 mM bicine at pH 8.65+/−0.05. This embodiment of the assay reagent delays the assay response relative to Example 1. Such a delay expands the “assay window” (from 5.1 to 6.7 seconds, inclusive, in Example 1; to 6.8 to 9.9 seconds, inclusive), and permits analysis of more data points.
When required, such as for stability of certain forms of carbonic anhydrase, additional compounds, such as salts, for example sodium chloride, can be added to the assay reagent. This embodiment of the assay reagent leads to an improved measure of carbonic anhydrase activity for forms of the enzyme which, in the absence of salt, may aggregate, precipitate, or otherwise change their form and alter the result in the assay measurement of CO2 absorption enhancement. The required concentration of salt is expected to be enzyme dependent, and the assay can be used to determine the optimal salt concentration required for optimal enzyme activity determination.
FIG. 3 presents the effect of salt concentration on the determination of carbonic anhydrase activity for a form of the enzyme that precipitates in the absence of salt.

[2] = cited from earlier work
[3] = tested on: carbonic anhydrase; assay: Carbonic anhydrase activity before and after zinc addition, bicine/cresol red CO2 hydration assay; assay type: biochemical, microbial origin; conditions: for fold improvement: activity with 3.5 mM zinc salt versus assay sample without zinc; for Activity (U/mL): zinc deficient enzyme sample incubated with 3.5 mM zinc salt overnight at room temperature
Procedure: A solution containing 25 mM bicine and 123 micromolar (0.05 g/L) cresol-red (pH 8.3) is prepared as the assay reagent. The assay substrate is prepared at room temperature by bubbling CO2 gas into either a 125 mL Erlenmeyer flask containing 100 mL deionized H2O (dH2O) or a 50 ml plastic conical tube containing 30 mL dH2O. Bubbling proceeds for at least 10 minutes to yield a saturated CO2(aq) solution ([CO2]˜30 mM (Kernohan, J. C. 1965. Biochim. Biophys. Acta 96: 304). Carbonic anhydrase test samples are diluted for the assay using the assay reagent as diluent. A set of assay samples, made by 5- or 6-×0.7-fold serial dilutions of the enzyme test sample, are loaded onto a 96-well microtiter plate. Eight replicate wells each containing 100 microliters of each dilution are plated. Corresponding blank wells are loaded on the same plate in alternating columns with the assay sample wells. Blank wells contain either assay reagent alone or a 5- or 6-×0.7-fold serial dilution set of a modified enzyme test sample, where the modification involves removing or inactivating the active enzyme of the test sample.
The plate is inserted into a temperature controlled plate reader equipped with a liquid dispenser unit with the inject head immersed in the aqueous CO2 substrate solution. Initial absorbance of a single well is collected, followed by injection of 100 microliters of aqueous CO2 substrate into a single well and kinetic absorbance reads are collected at fixed time intervals (e.g., every 0.5 seconds) for that well such that the rate of absorbance change can be measured and used to indicate the rate of CO2 hydration. After approximately 5-10 seconds the reaction is no longer monitored and the process is repeated for all subsequent wells. Data automatically collected on the instrument is saved or exported in Microsoft Excel file format and copy/pasted into the Microsoft Excel automated data processing template. The data collected for each well is automatically checked for a linear slope (change in absorbance with change in time) within a selected “assay window” indicating the enzyme in that well was saturated with substrate during the assay window. The assay window is a sub-set of data points collected between selected time points for each well. The assay window for all wells in this example are the same. The slope of the data collected from an individual well assay window is called the “assay slope.” Wells passing the “linearity test” are averaged for a particular dilution to determine the “average assay slope” for that particular dilution. Next, a T-test between blank and assay sample replicates determines the probability that the differences between the two data sets could arise by chance, improving data quality by ensuring that data from an excessively diluted assay sample are not included in calculations of enzyme activity. If at least 3 dilution sets pass the T-test (T-test value <0.05), and at least 4 out of 8 replicate wells for those dilutions pass the “linearity test,” the average assay slope (change in absorbance per unit time) for each accepted dilution is plotted versus the amount of enzyme present in that dilution. […]
Carbonic anhydrase activity improvement was evaluated by measuring enzyme activity before and after zinc addition according to the method of Example 1. […]

[4] = compared to other indicators with similar pKas, such as phenol red; cited from earlier work

Structure (SMILES)	pKa [2]	fold improvement [3]	also measured
[Cl-].[Na+] [NaCl, sodium chloride]	–	–	effect of salt addition on activity of a carbonic anhydrase test sample [1]: improve the activity
NC(CO)(CO)CO [Tris]	8.0	–	–
CCC1(CC)C(=O)NC(=O)NC1=O [Veronal]	8.0	–	–
[Cl-].[Cl-].[Zn+2] [ZnCl2]	–	9 (ZnCl2) fold	Activity (U/mL) [3]: 5800 (ZnCl2) U/mL
O.O.O.O.O.O.O.O=S(=O)([O-])[O-].[Zn+2] [ZnSO4 × 7H2O, ZnSO4×7 H2O]	–	10 (ZnSO4 × 7H2O) fold	Activity (U/mL) [3]: 6400 (ZnSO4 × 7H2O) U/mL
Cc1cc(C2(c3ccc(O)c(C)c3)OS(=O)(=O)c3ccccc32)ccc1O [cresol red, o-Cresolsulfonephthalein]	8.32	–	water solubility [4]: relatively high water solubility
[Zn] [zinc]	–	around 10 fold	–
